The term IC50 denotes the concentration needed to halve the response being measured.

This is an account of results in PubChem BioAssay AID602207 (Sanford-Burnham Center for Chemical Genomics, 2012).

The assay has as its target Caspase-3 (Homo sapiens) (UniProt P42574). Nature of the assay: inhibition of recombinant caspase-3 activity – biochemical, luminescence, Caspase-Glo 3/7, set 3, counter-screen for UBC13 polyubiquitin inhibitor project, SAR follow-up (AID 602207). The following applies: recombinant caspase-3, Caspase-Glo luminescence, 60 min. (In general: The purpose of a counterscreen is to sort out artefacts and off-target activity.)

Molecules are shown by their SMILES. Calls of active or inactive are those of the source.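 How the source made its calls: active means IC50 below 100 µM in the TR-FRET assay, unless also active in the caspase-3 counter assay; inactive means the rest, including compounds also active in caspase-3.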 Some results are limits rather than exact numbers.

Caspase-3 (Homo sapiens), sequence (P42574 whole entry, looked up): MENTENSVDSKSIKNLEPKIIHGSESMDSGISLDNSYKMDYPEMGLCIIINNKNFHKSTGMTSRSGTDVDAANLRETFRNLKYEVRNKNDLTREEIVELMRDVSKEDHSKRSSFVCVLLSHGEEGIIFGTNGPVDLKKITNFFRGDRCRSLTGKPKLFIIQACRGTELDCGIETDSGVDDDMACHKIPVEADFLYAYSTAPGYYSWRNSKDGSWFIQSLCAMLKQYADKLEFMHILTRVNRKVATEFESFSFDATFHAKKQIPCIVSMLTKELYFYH

Consider `Fc1ccccc1N1CCN(c2ncnc3c2nc2n3CCCC2)CC1`, for which the IC50 was > 100 µM (inactive).

Regarding `O=C(Nc1cc(F)ccc1F)C1CCN(c2ncnc3c2nc2n3CCCCC2)CC1`, the IC50 is > 100 µM (inactive).

As for `c1nc(N2CCC(N3CCCCC3)CC2)c2nc3n(c2n1)CCCC3`, the IC50 was > 100 µM (inactive).

For `COc1ccc(NC(=O)C2CCN(c3ncnc4c3nc3n4CCCCC3)CC2)cc1Cl`, the IC50 is > 100 µM (inactive).

As to `Cc1ccc(NC(=O)C2CCN(c3ncnc4c3nc3n4CCCCC3)CC2)c(Cl)c1`, the IC50 was > 100 µM (inactive).

Take `O=C(Nc1ccc(CN2CCCCC2)cc1)C1CCN(c2ncnc3c2nc2n3CCCCC2)CC1`: the IC50 was > 100 µM (inactive).

On to `Cc1ccc(Cl)cc1N1CCN(c2ncnc3c2nc2n3CCCC2)CC1`, for which the IC50 was > 100 µM (inactive).

`c1ccc(CN2CCN(c3ncnc4c3nc3n4CCCC3)CC2)cc1`: the IC50 was > 100 µM (inactive).

As for `CCOc1ccc(CCNC(=O)CCCCCN2C(=O)c3ccccc3C2=O)cc1OCC`, the IC50 was > 100 µM (inactive).

On to `Cc1ccc(NC(=O)C2CCN(c3ncnc4c3nc3n4CCCCC3)CC2)cc1C`, for which the IC50 is > 100 µM (inactive).

Turning to `Cc1cc(Cl)ccc1NC(=O)C1CCN(c2ncnc3c2nc2n3CCCCC2)CC1`, the IC50 was > 100 µM (inactive).

`O=C(Nc1cccc(Cl)c1)C1CCN(c2ncnc3c2nc2n3CCCCC2)CC1`: the IC50 is > 100 µM (inactive).

Turning to `Cc1ccc(NC(=O)C2CCN(c3ncnc4c3nc3n4CCCCC3)CC2)cc1F`, the IC50 was > 100 µM (inactive).

`Cc1c(Cl)cccc1NC(=O)C1CCN(c2ncnc3c2nc2n3CCCCC2)CC1`: the IC50 is > 100 µM (inactive).

For the compound `COc1cc(OC)c(NC(=O)C2CCN(c3ncnc4c3nc3n4CCCCC3)CC2)cc1Cl`, the IC50 is > 100 µM (inactive).

`CC1CN(S(=O)(=O)c2ccc(NC(=O)CCCCCN3C(=O)c4ccccc4C3=O)cc2)CC(C)O1` (centres undefined): the IC50 is > 100 µM (inactive).

For `COc1ccc(Cl)cc1NC(=O)C1CCN(c2ncnc3c2nc2n3CCCCC2)CC1`, the IC50 was > 100 µM (inactive).

For `COc1cc(Cl)c(C)cc1NC(=O)C1CCN(c2ncnc3c2nc2n3CCCCC2)CC1`, the IC50 is > 100 µM (inactive).

Take `O=C(CCCCCN1C(=O)c2ccccc2C1=O)NCCc1ccccc1`: the IC50 was > 100 µM (inactive).
